Results taken from patent US4971970A, “Benzoheterocyclic compounds” (Otsuka Pharmaceutical Company, Limited, priority 1988, dated 1990).

Tested on: Escherichia coli No. 29 strain
Assay: Antimicrobial activity in vivo (ED50 in mice infected with Escherichia coli No. 29)
Settings: mice (10 per group), i.p. infection with E. coli No. 29 (10^5 -10^6 cells/mouse) in mucin, compound oral one hour after infection, observed one week, Probit method, read-out: 50 % effective dose (ED50)
Procedure: Experiment (Antimicrobial activity in vivo)
Escherichia coli No. 29 strain was cultured in a nutrient medium at 37° C., and the culture broth was diluted with the same medium and thereto was added an equivolume of 6 % mucin solution to prepare a cell solution.
The cell solution thus prepared (0.5 ml) (e. coli cells; 10^5 -10^6 cells/mouse) was intraperitoneally administered to mice (10 mice per group). […] From the number of dead mice and the survival mice, the 50 % effective dose (ED50) of the test compound was calculated by Probit method.

`Cc1c(F)c(N2CCNC(C)C2)cc2c1c(=O)c(C=O)cn2C1CC1` (stereo not shown) [1-Cyclopropyl-6-fluoro-7-(3-methyl-1-piperazinyl)-5-methyl-3-formyl-1,4-dihydro-4-oxoquinoline] gave an ED50 of 0.331 mg/kg.
